Test results published in patent US20080255062A1, “AXON REGENERATION FROM ADULT SENSORY NEURONS” (UNIVERSITY OF MANITOBA, priority 2007, published 2008).
Counter-ions that a name gives are not always drawn.

Assays:
adult sensory neurons = assay: Small molecule screen for axon regeneration and outgrowth in adult neural cell suspensions (Example 3); assay type: cell-based, Sprague-Dawley rat; settings: 10 μM drug, 24 hrs incubation; average of 4 fields from 3 wells (12 fields) ± SE; 30×30 μm grid
Text: A single adult male Sprague-Dawley rat weighing between 250 g-450 g was anesthetized by isofluorane induction. After no response to external stimuli, the rat was sacrificed by guillotine.
Unnecessary satellite tissues and nerve fibers were cleaned from the DRG tissue immersed in the cell suspension medium at ambient room temperature using # 5 student forceps and a #10 scalpel blade under a Fisher Scientific Stereomaster® dissecting microscope (Stereomaster is a registered trademark of Fischer Scientific Co., LLC., Hampton, N.H., USA). The cleaned DRG tissue was placed into fresh cell suspension medium.
The cleaned DRG tissue was digested enzymatically to remove collagen fibers and proteinaceous material thereby releasing single DRG cells, as follows. […] The DRG tissue was then transferred to a fresh collagenase enzyme-cell suspension medium and incubated for another hour, after which the collagenase-digested DRG tissue was aspirated and washed twice in cell suspension medium pre-warmed to ambient room temperature.
The washed collagenase-digested DRG tissue was then placed into cell suspension medium to which a trypsin enzyme preparation (Prod. # T5266 from porcine pancreas; supplied by Sigma-Aldrich) was added to a final concentration of 0.25%, and then incubated for twenty minutes at 37° C. in a sterile atmosphere comprising 5% CO2. The trypsin action was stopped by the addition of 1 mL of pre-warmed HyClone fetal bovine serum […] (FBS Prod. # SH30070.01 supplied by Thermo Fisher Scientific, Napean, ON, Canada). The enzyme-digested DRG tissue was then washed twice with cell suspension medium supplemented with 10% FBS to ensure deactivation of trypsin activity. The enzyme-digested DRG tissue was then washed twice with cell suspension medium to remove the FBS.
The enzyme-digested DRG tissue was taken up from the cell suspension medium into a borosilicate glass Pasteur pipette (note that a borosilicate glass pipette was used to minimize DRG tissue sticking to the pipette) and was triturated about 15 times to disrupt the DRG tissue and to disassociate individual cells, after which the large tissue fragments were allowed to settle out of the suspension.
The supernatent containing satellite cells and debris was aspirated and discarded. […] The Ham's F12 medium containing 15% BSA served as a purification column for the supernatent and produced several upper layers containing dead cells, cellular debris and satellite layers over pellet of live neural cells. The upper layers were removed by aspiration with a Pasteur pipette. The cell pellet was resuspended in 1 mL of plating medium which comprised the cell suspension medium amended with 15 mM D-glucose (for a final concentation of 25 mM glucose). The 1 mL of suspended neural cells was then added to 19 mL of plating medium to make a 20-mL suspension of live neural cells.
600 μL of the neural cell suspension was removed to a 1.5 mL Eppendorf centrifuge tube.
The 600-μL reserved neural cell suspension was separated into three 200-μL aliquots which were then each plated into a well. The growth-factor-amended neural cell suspension was then plated into the remaining 93 wells in 200-μL aliquots. DMSO (Cat. # D2650 supplied by Sigma-Aldrich) was added to the three control wells (i.e., containing neural cell suspension that was not amended with growth factor supplements). The 96-well plate was then stored in a direct-heat humidified incubator (Form a CO2 Incubator supplied by Thermo Fisher Scientific) at 37° C. in a sterile atmosphere comprising 5% CO2.
(§1) High resolution and high pixel density digitized images of neurons were acquired. […] Total axon outgrowth was determined by placing a 30×30 μm grid over the image and counting the total number of intercepts with the grid line. Total neurite lengths were determined by the summing the lengths of all the neurites produced by an individual neuron.

[1] = test system: adult neurals cells isolated from four-month old ZDF rats; assay: Axon outgrowth from adult neural cells of Zucker diabetic fatty rats (Example 5); assay type: cell-based, Zucker diabetic fatty rat; settings: 24-h incubation, 25 mM glucose
Description: as §1

[2] = test system: adult neural cells isolated from three-month-old STZ rats; assay: Axon outgrowth from adult neural cells of streptozotocin diabetic rats (Example 4); assay type: cell-based, Sprague-Dawley rat (STZ diabetic); settings: 24-h incubation, 25 mM glucose
Description: as §1

[3] = at the dosages tested (0.1, 1.0, 10.0 μM)

Compound | Ave number of intersects per cell per well (adult sensory neurons) | further results
CCC1(c2ccc(N)cc2)CCC(=O)NC1=O (stereo not shown) [Aminoglutethimide] | 5.9 ± 2.0 | 
CC(C)NCC(O)COc1ccc(CC(N)=O)cc1 (stereo not shown) [Atenolol] | 6.2 ± 0.2 | 
NCC(CC(=O)O)c1ccc(Cl)cc1 (stereo not shown) [Baclofen] | 9.8 ± 2.2 | 
CC(C)(Oc1ccc(CCNC(=O)c2ccc(Cl)cc2)cc1)C(=O)O [Bezafibrate] | 6.9 ± 1.7 | 
Cn1c(=O)c2c(ncn2C)n(C)c1=O [Caffeine] | 3.25 ± 1.6 | 
CCCCOc1cc(C(=O)NCCN(CC)CC)c2ccccc2n1 [Dibucaine hydrochloride] | 2.0 ± 0.3 | 
CN[C@@H]1[C@H](O[C@H]2[C@H](O[C@H]3[C@H](O)[C@@H](O)[C@H](NC(=N)N)[C@@H](O)[C@@H]3NC(=N)N)O[C@@H](C)[C@]2(O)CO)O[C@@H](CO)[C@H](O)[C@H]1O [Dihydrostreptomycin HCl] | 2.4 ± 0.6 | 
CCN(CC)C(C)CN1c2ccccc2Sc2ccccc21 (stereo not shown) [Ethopropazine HCL] | 4.4 ± 1.4 | axon outgrowth relative to the controls ([1]; 10.0 μM): significantly increased
COc1ccccc1OCC(O)CO (stereo not shown) [Guaifenesin] | 5.0 ± 0.9 | axon outgrowth relative to the controls ([1]; 0.1 μM): significantly increased; axon outgrowth relative to the controls ([2]; 10.0 μM): significantly increased
CC(C(=O)O)c1cccc(C(=O)c2ccccc2)c1 (stereo not shown) [Ketoprofen] | 7.9 ± 0.7 | 
CC(=O)O[C@]1(C(C)=O)CC[C@H]2[C@@H]3C=C(C)C4=CC(=O)CC[C@]4(C)[C@H]3CC[C@@]21C [Megastrol acetate] | 9.2 ± 1.8 | 
O=S(=O)(O)CCS [Mesna] | 8.8 ± 3.9 | 
C=N[C@@H](C(=O)N[C@@H]1C(=O)N2[C@@H]1SC(C)(C)[C@@H]2C(=O)O)c1ccccc1 [Metampicillin sodium] | 6.7 ± 1.3 | 
COc1c2occc2cc2ccc(=O)oc12 [Methoxsalen] | 9.7 ± 2.0 | 
Nc1ccc(/N=N/c2ccccc2)c(N)n1 [Phenazopyridine HCl] | 10.2 ± 0.2 | 
CN1CCN(CC(=O)N2c3ccccc3C(=O)Nc3cccnc32)CC1 [Pirenzepine HCl] | 4.4 ± 0.7 | axon outgrowth relative to the controls [1, 3]: did not have significant effects; axon outgrowth relative to the controls [2, 3]: did not have significant effects
CCCC(CCC)C(=O)[O-].[Na+] [Sodium valproate] | 8.5 ± 1.8 | 
Aminopentanoic acid |  | axon outgrowth relative to the controls [2, 3]: did not have significant effects
Aminopentanoic acid HCl | 4.3 ± 0.4 | 
Hydrocortizone | 10.7 ± 1.7 | 
